Experimental findings from patent publication US20220348590A1, “CYCLOOXYGENASE-2 INHIBITORS AND USES THEREOF” (The Board Institute, Inc., priority 2019, published 2022) are described below.

Each structure is given as a SMILES string. Where two headings read alike, the source gives them in different places.

A short description of data set [1]: Mouse Microsome Stability. It counts as in vitro ADME. As to conditions: mouse microsomes.
For data set [2], the system named is MDR1. Put plainly: MDR1-MDCKII permeability and efflux. The following applies: dog, MDCK-MDR1. The format is in vitro ADME.
A short description of data set [3]: mouse brain protein binding (BPB) assay. It counts as in vitro ADME. How it is done: (§1) We have adapted a previously reported cyclooxygenase enzymatic assay utilizing LCMS quantification of PGE2 as the product of COX-1 and COX2 catalyzed conversion of arachidonic acid to evaluate the binding properties of newly synthesized ligands [Cao, 2011]. These optimized and miniaturized (384-well plates) LCMS-based COX-1 and COX2 enzymatic assays enabled us to quickly evaluate newly synthesized ligands for COX2 binding affinity and selectivity vs COX-1. Using a shorter ligand-enzyme incubation time in the LCMS assay (2 minutes vs 10 minutes) also permitted us to prioritize ligands with faster binding kinetics. Considering the relatively slow on-rate kinetics of known coxibs, due to their 3-step binding mechanism [Marnett, 2009], we believe that optimizing this critical parameter will be key to the successful development of a COX2 PET tracer. Using these enzymatic assays, we have evaluated>200 newly synthesized ligands against COX2 and >20 ligands against COX-1. Another critical property necessary for a good PET radiotracer is to have low non-specific binding (NSB) to increase the free fraction and maximize the signal to noise ratio. This property can be evaluated using in-vitro protein binding assays, and we have now evaluated>50 newly synthesized ligands in mouse, rat and human plasma protein binding (PPB) assays as well as >15 ligands in a mouse brain protein binding (BPB) assay.

Data set [4] can be described thus: Rat Microsome Stability. It counts as in vitro ADME. As to conditions: rat microsomes.
Data set [5] is described as follows: in-vitro protein binding: free fraction / fraction unbound, matrix and species not given. It counts as in vitro ADME. The following applies: compared to MC1; comparator not always stated. How it is done: as §1
Data set [6] concerns the target T1, ovine COX-1 (oCOX-1) (Ovis aries, UniProt P05979).
T1 construct: purchased Cayman Chemicals (Ann Arbor, Mich.)
T1 sequence (P05979 25-600): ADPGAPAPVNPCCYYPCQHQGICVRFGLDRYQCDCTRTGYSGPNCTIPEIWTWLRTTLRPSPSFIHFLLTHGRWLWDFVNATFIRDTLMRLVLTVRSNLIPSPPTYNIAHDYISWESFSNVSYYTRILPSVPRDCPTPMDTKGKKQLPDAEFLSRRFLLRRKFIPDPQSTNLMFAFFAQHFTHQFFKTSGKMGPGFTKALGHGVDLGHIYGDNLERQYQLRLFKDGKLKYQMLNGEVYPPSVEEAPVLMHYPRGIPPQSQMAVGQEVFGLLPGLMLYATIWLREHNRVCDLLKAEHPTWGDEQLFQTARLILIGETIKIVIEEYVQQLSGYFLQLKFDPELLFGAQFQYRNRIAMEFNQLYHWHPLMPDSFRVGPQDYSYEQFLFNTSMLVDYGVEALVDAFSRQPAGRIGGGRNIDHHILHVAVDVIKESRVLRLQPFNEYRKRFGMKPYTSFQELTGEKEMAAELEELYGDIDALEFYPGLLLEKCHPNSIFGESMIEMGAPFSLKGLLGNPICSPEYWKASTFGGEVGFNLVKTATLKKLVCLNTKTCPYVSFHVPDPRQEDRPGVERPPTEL
As to the kind of experiment: LCMS-based COX-1 enzymatic inhibition assay (PGE2 quantification). The format is biochemical. The following applies: 10 minutes. The method, boiled down: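 PGE2 formed from arachidonic acid (final 5 μM, 2 min) was measured by LC-MS-MS against DMSO controls. Enzyme (oCOX-1 0.1 μg or hCOX2 0.2 μg) with hematin/epinephrine cofactors at pH 8.0 was given 10 min at 37 °C with compound first. Twelve-point curves run three times gave IC50.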

The term efflux ratio denotes a quotient of directional permeabilities that is used to spot active efflux. By Papp A→B is commonly meant how fast a substance crosses the layer from the apical side. Broadly, the Papp B→A is how fast a substance crosses the layer from the basolateral side. By fraction unbound is commonly meant free concentration divided by total concentration. A higher fraction unbound goes with much free substance. For the molecule `CS(=O)(=O)c1ccc(-c2cncc(NCc3cccs3)n2)cc1` [Compound 98], the “Mouse Microsome Stability % Remaining Avg” value in data set [1] was 3%. In addition, in data set [2], the efflux ratio stood at 1.7. Further, the Papp A→B in data set [2] (A-B, read-out: MDR1-MCKII Papp A-B) was determined as 49.7 ×10⁻⁶ cm/s. The Papp B→A in data set [2] (B-A, read-out: MDR1-MCKII Papp B-A) was 83.8 ×10⁻⁶ cm/s. Besides, in data set [3], the fraction unbound was 0.02. For the same molecule, the “Rat Microsome Stability % Remaining Avg” value in data set [4] is on record as 20.3%. The “improvement in free fraction (fraction unbound)” value in data set [5] stood at 3 fold. Besides, in data set [6] (pge2/pge2d4 area ratio, head of this section not shown, inferred), the “COX1 10 minutes pge2/pge2d4 area ratio Avg. LLE” value was determined as 2.943. Also, the “COX1 10 minutes pge2 area (counts) Avg. LLE” value in data set [6] (pge2 area (counts), head of this section not shown, inferred) worked out at 2.879. The IC50 turned out to be 10.7 µM in data set [6] (pge2 area (counts), head of this section not shown, inferred, read-out: COX1 10 minutes pge2 area (counts) Avg. IC50) and 9.89 µM in data set [6] (readout pge2/pge2d4 area ratio, average, read-out: COX1 10 minutes pge2/pge2d4 area ratio Avg. IC50).
